Measured values reported in patent US20080171687A1, “Compositions And Methods For The Preparation And Administration Of Poorly Water Soluble Drugs” (Abraxis Bioscience, Inc., priority 2004, published 2008).
≈ marks a conversion by molar mass, not a printed value.

How the values were obtained:
physchem = details: organic solvent or mixture, thermodynamic from solid, Solubility In DMI (mg/ml)
[1] = solvent dimethyl isosorbide (DMI); dissolved with gentle heating as needed

| solubility (physchem) [mg/mL] | Compound | also measured |
| --- | --- | --- |
|  | CC[C@@]1(O)C(=O)OCc2c1cc1n(c2=O)Cc2cc3ccccc3nc2-1 [Campothecin] | solubility (physchem; solvent dimethyl isosorbide (DMI), dissolved with gentle heating as needed): < 1 mg/mL |
| 90 (≈ 111 mM) | CC(=O)O[C@@]12CO[C@@H]1C[C@H](O)[C@@]1(C)C(=O)[C@H](O)C3=C(C)[C@@H](OC(=O)[C@H](O)[C@@H](NC(=O)OC(C)(C)C)c4ccccc4)C[C@@](O)([C@@H](OC(=O)c4ccccc4)[C@H]21)C3(C)C [Docetaxel] |  |
| 9.6 (≈ 13.6 mM) | CCC(C)n1ncn(-c2ccc(N3CCN(c4ccc(OCC5COC(Cn6cncn6)(c6ccc(Cl)cc6Cl)O5)cc4)CC3)cc2)c1=O (centres unmarked) [Itraconazole] |  |
| 192 (≈ 827 mM) | COc1ccc2[nH]cc(CCNC(C)=O)c2c1 [Melatonin] |  |
| 17.4 (≈ 50.4 mM) | COc1ccc2[nH]c([S+]([O-])Cc3ncc(C)c(OC)c3C)nc2c1 (centres unmarked) [Omeprazole] |  |
|  | CC(C)c1cccc(C(C)C)c1O [Propofol] | Solubility In DMI (mg/ml) [1]: completely |
| 121 (≈ 132 mM) | CO[C@H]1C[C@@H]2CC[C@@H](C)[C@@](O)(O2)C(=O)C(=O)N2CCCC[C@H]2C(=O)O[C@H]([C@H](C)C[C@@H]2CC[C@@H](O)[C@H](OC)C2)CC(=O)[C@H](C)/C=C(\C)[C@@H](O)[C@@H](OC)C(=O)[C@H](C)C[C@H](C)/C=C/C=C/C=C/1C [Rapamycin] |  |
|  | CCc1c2c(nc3ccc(O)cc13)-c1cc3c(c(=O)n1C2)COC(=O)[C@]3(O)CC [SN-38] | Solubility In DMI [1]: <1 mg/mL |
